Laboratory results as given in ChEMBL document CHEMBL4673237, “Annulation reaction enables the identification of an exocyclic amide tricyclic chemotype as retinoic acid Receptor-Related orphan receptor gamma (RORγ/RORc) inverse agonists” (Bioorg Med Chem Lett, 2020).

How the values were obtained:
[1] = Metabolic stability in mouse liver microsomes assessed as parent compound remaining; type: ADME, Microsome
[2] = Metabolic stability in human liver microsomes assessed as parent compound remaining; type: ADME, Microsome
Cytochrome P450 2C8 = molecular target: T1, Cytochrome P450 2C8 (Homo sapiens, UniProt P10632); experiment: Inhibition of recombinant CYP2C8 (unknown origin); type: ADME; conditions: recombinant enzyme, dose >10 µM
T1 sequence (P10632 whole entry): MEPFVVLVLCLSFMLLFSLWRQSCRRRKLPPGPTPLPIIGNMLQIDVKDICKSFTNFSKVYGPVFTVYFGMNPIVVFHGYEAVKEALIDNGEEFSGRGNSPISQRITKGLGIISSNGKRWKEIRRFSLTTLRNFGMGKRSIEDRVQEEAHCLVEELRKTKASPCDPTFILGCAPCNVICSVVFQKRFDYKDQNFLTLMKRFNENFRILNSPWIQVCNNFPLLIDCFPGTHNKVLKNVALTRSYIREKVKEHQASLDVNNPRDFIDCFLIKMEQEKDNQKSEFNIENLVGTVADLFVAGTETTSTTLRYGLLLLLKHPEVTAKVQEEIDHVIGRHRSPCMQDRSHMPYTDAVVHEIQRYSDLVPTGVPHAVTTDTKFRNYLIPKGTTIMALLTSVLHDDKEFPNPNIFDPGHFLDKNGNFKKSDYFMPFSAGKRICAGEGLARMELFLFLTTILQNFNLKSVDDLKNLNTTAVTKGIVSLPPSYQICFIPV

Cytochrome P450 2C9 = Cytochrome P450 2C9 (Homo sapiens, UniProt P11712); experiment: Inhibition of recombinant CYP2C9 (unknown origin); type: ADME; conditions: recombinant enzyme, dose >10 µM
Sequence of Cytochrome P450 2C9 (P11712 whole entry): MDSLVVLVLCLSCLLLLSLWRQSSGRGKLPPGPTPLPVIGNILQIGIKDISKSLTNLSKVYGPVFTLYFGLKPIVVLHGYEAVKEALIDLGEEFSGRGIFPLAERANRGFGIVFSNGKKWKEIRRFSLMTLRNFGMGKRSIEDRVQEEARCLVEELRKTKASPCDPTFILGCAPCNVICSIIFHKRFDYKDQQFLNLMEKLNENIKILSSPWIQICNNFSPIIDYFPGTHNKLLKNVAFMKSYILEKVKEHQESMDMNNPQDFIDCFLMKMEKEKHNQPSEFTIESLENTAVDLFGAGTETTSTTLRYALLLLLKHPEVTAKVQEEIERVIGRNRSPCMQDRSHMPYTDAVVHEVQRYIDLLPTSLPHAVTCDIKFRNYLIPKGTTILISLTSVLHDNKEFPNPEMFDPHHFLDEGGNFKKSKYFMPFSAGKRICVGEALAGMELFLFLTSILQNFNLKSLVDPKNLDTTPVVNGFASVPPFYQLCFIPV

[3] = Protein binding in mouse serum assessed as unbound fraction; type: ADME, cell-free
Cytochrome P450 2D6 = Cytochrome P450 2D6 (Homo sapiens, UniProt P10635); experiment: Inhibition of recombinant CYP2D6 (unknown origin); type: ADME; conditions: recombinant enzyme, dose >10 µM
Sequence of Cytochrome P450 2D6 (P10635 whole entry): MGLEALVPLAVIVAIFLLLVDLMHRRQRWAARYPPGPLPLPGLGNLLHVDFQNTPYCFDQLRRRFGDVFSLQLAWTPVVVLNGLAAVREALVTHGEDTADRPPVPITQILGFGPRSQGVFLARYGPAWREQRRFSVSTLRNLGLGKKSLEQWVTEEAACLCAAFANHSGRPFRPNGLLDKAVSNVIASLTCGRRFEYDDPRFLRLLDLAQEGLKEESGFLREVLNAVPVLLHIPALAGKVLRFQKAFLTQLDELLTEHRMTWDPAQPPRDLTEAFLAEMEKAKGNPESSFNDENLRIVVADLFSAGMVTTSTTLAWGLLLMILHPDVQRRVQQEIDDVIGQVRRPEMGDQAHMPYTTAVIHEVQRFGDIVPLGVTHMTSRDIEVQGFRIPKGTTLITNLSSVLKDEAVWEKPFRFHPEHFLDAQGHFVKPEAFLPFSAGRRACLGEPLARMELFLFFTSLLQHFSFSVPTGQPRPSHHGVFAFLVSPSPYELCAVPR

Cytochrome P450 2C19 = Cytochrome P450 2C19 (Homo sapiens, UniProt P33261); experiment: Inhibition of recombinant CYP2C19 (unknown origin); type: ADME; conditions: recombinant enzyme, dose >10 µM
Sequence of Cytochrome P450 2C19 (P33261 whole entry): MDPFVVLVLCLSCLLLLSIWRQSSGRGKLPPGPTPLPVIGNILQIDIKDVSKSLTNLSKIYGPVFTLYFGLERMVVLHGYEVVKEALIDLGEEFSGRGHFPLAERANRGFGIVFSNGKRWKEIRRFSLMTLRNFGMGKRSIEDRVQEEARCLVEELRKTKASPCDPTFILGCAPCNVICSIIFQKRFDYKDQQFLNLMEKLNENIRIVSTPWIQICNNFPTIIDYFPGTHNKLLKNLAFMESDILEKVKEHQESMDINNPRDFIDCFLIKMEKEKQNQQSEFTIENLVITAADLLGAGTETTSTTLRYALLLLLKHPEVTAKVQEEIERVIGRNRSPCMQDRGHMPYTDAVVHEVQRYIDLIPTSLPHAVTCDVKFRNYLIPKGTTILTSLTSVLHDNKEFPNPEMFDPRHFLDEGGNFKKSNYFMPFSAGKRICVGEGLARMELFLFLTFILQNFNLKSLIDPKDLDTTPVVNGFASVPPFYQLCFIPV

[4] = molecular target: T2, Nuclear receptor subfamily 1 group I member 2 (Homo sapiens, UniProt O75469); experiment: Inhibition of PXR (unknown origin); conditions: dose >50 µM
T2 sequence (O75469 whole entry): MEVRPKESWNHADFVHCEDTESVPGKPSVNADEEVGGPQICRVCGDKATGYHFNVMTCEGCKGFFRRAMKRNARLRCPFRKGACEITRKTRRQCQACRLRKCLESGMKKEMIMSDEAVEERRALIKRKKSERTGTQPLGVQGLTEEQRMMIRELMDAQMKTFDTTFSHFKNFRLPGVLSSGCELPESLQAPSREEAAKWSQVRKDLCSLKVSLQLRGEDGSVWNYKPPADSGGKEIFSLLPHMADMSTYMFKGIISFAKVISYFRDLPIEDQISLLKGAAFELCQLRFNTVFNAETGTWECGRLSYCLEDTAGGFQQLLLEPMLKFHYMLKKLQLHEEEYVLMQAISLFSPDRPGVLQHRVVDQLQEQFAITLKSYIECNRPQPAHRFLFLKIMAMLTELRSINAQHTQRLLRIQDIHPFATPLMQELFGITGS

[5] = Permeability from apical side to basolateral side in human Caco-2 cells; type: ADME, cell-based; conditions: read-out: permeability
Cytochrome P450 1A2 = molecular target: T3, Cytochrome P450 1A2 (Homo sapiens, UniProt P05177); experiment: Inhibition of recombinant CYP1A2 (unknown origin); type: ADME; conditions: recombinant enzyme, dose >10 µM
T3 sequence (P05177 whole entry): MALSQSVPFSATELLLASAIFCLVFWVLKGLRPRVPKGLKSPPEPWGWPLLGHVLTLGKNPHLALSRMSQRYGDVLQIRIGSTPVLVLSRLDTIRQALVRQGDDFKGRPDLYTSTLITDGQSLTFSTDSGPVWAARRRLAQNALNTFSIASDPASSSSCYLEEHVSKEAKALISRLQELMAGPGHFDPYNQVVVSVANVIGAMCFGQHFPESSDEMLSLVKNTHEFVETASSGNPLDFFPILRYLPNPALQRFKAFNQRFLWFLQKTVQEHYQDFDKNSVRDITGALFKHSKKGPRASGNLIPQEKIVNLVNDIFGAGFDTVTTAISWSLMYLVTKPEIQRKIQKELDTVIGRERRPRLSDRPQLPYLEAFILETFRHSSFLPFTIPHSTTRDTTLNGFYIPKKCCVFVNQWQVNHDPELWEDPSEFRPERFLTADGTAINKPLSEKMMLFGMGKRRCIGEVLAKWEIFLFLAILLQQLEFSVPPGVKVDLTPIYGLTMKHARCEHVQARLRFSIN

[6] = Metabolic stability in mouse liver microsomes assessed as half life
[7] = Metabolic stability in human liver microsomes assessed as half life
[8] = Protein binding in human serum assessed as unbound fraction; type: ADME, cell-free

| Compound | Stabilty [1] [%] | Stabilty [2] [%] | other results |
| --- | --- | --- | --- |
| O=C(NCC1(O)CCCCC1)[C@@H]1CC[C@@]2(S(=O)(=O)c3ccc(F)cc3)c3ccc(C(F)(C(F)(F)F)C(F)(F)F)cc3CC[C@@H]12 | 38 | 5 | – |
| C[C@H](CO)NC(=O)[C@@H]1CC[C@@]2(S(=O)(=O)c3ccc(F)cc3)c3ccc(C(F)(C(F)(F)F)C(F)(F)F)cc3CC[C@@H]12 | 39 | 46 | – |
| O=C(NCC1(O)CCCC1)[C@@H]1CC[C@@]2(S(=O)(=O)c3ccc(F)cc3)c3ccc(C(F)(C(F)(F)F)C(F)(F)F)cc3CC[C@@H]12 | 41 | 22 | – |
| CC(C)(O)CNC(=O)[C@@H]1CC[C@@]2(S(=O)(=O)c3ccc(F)cc3)c3ccc(C(F)(C(F)(F)F)C(F)(F)F)cc3CC[C@@H]12 | 77 | 99 | INH (Cytochrome P450 2C8): > 10 µM; INH (Cytochrome P450 2C9): > 10 µM; Fu [3]: 0.4%; INH (Cytochrome P450 2D6): > 10 µM; INH (Cytochrome P450 2C19): > 10 µM; INH [4]: > 50 µM; Papp A→B [5]: 15 ×10⁻⁶ cm/s; INH (Cytochrome P450 1A2): > 10 µM; half-life [6]: 0.683 h; half-life [7]: 1.35 h; Fu [8]: 0.5% |
| C[C@H](O)CNC(=O)[C@@H]1CC[C@@]2(S(=O)(=O)c3ccc(F)cc3)c3ccc(C(F)(C(F)(F)F)C(F)(F)F)cc3CC[C@@H]12 | 41 | 34 | – |
| C[C@@H](CO)NC(=O)[C@@H]1CC[C@@]2(S(=O)(=O)c3ccc(F)cc3)c3ccc(C(F)(C(F)(F)F)C(F)(F)F)cc3CC[C@@H]12 | 55 | 53 | – |
| O=C(NCC1(O)CCC1)[C@@H]1CC[C@@]2(S(=O)(=O)c3ccc(F)cc3)c3ccc(C(F)(C(F)(F)F)C(F)(F)F)cc3CC[C@@H]12 | 57 | 74 | – |
| O=C(NC[C@H](O)C(F)(F)F)[C@@H]1CC[C@@]2(S(=O)(=O)c3ccc(F)cc3)c3ccc(C(F)(C(F)(F)F)C(F)(F)F)cc3CC[C@@H]12 | 100 | 100 | – |
| C[C@@H](O)CNC(=O)[C@@H]1CC[C@@]2(S(=O)(=O)c3ccc(F)cc3)c3ccc(C(F)(C(F)(F)F)C(F)(F)F)cc3CC[C@@H]12 | 51 | 56 | – |
| CC(C)(O)C(C)(C)NC(=O)[C@@H]1CC[C@@]2(S(=O)(=O)c3ccc(F)cc3)c3ccc(C(F)(C(F)(F)F)C(F)(F)F)cc3CC[C@@H]12 | 14 | 75 | – |
| O=C(NCC1(O)CC1)[C@@H]1CC[C@@]2(S(=O)(=O)c3ccc(F)cc3)c3ccc(C(F)(C(F)(F)F)C(F)(F)F)cc3CC[C@@H]12 | 26 | 19 | – |
| O=C(NCCO)[C@@H]1CC[C@@]2(S(=O)(=O)c3ccc(F)cc3)c3ccc(C(F)(C(F)(F)F)C(F)(F)F)cc3CC[C@@H]12 | 78 | 86 | – |
